# According to patent EP4702986A1, “POLYPEPTIDE AND USE THEREOF” (Biocells (Beijing) Biotech Co., Ltd., priority 2023, dated 2024):
# “Also recorded” adds a separate entry of the source. Numbered stars: 1 amine (or outer) side, 2 acyl side, 3 side chain; on linkers, the order of the positions; unused ones are H or OH. Side chains are listed from the residue outwards. Peptide text beside a SMILES is read from it. * marks the point of attachment. X1 = C[C@H](NC(=O)[C@@H]1CCCN1C(=O)[C@@H](N)CSC1CC(=O)N(CCC(=O)*)C1=O)C(=O)N[C@@H](CCCCN)C(=O)O; γGlu = O=C(O)[C@H](CCC(=O)[*:2])N[*:1]; Fumaroyl = O=C(O)/C=C/C(=O)*; Suc = O=C(CCC(=O)[*:2])[*:1]; Lauroyl = CCCCCCCCCCCC(=O)*; AEEA = NCCOCCOCC(=O)O
# How the values were obtained:
# mouse ETB receptor = target: T1, mouse ETB receptor (Mus musculus, UniProt P48302); test: Determination of EC50s of polypeptides against mouse ETB receptor; format: cell-based; details: Table 9, mouse ETB receptor; read-out: DETAR Agonist Activity EC50
# T1 construct: expressed in transfected cells
# T1 sequence (P48302 27-442): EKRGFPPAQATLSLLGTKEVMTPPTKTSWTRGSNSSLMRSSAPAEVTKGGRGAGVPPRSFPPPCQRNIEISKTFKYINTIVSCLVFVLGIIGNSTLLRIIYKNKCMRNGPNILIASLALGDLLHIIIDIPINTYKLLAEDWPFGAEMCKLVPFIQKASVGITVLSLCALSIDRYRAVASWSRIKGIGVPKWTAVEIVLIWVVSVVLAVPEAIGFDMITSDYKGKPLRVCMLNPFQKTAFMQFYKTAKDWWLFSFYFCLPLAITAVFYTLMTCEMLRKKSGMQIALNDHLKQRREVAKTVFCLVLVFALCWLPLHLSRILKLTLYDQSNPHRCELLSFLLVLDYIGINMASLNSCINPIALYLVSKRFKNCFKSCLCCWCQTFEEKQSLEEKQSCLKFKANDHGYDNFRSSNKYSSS
# rat model of pMACO [1] = test: mRS-6 scoring in rat model of pMACO; format: in vivo, SD rats; set-up: mRS-7D / mRS-14D / mRS-21D / mRS-30D: scale not given here; details: 3Time regimen: IRL1620 5 µg/Kg, BX225 6.6 µg/Kg
# Description: (§1) Male SD rats, weighing 280-300 g, were used and acclimatized for at least 3 days. Focal cerebral ischemia was induced by middle cerebral artery occlusion with a suture method under isoflurane anesthesia. The animals were placed in a supine position, a midline incision was made, and the right common carotid artery, external carotid artery, and internal carotid artery were exposed. A 4.0 monofilament nylon suture was advanced from the external carotid artery toward the internal carotid artery lumen until resistance was felt (~20 mm), indicating middle cerebral artery occlusion. The nylon filament was allowed to stay in place to create a permanent model of focal cerebral ischemia. The day of modeling was defined as D1, the next day as D2, and so on. Since the experiment was not be completed in a single batch, and in order to prevent accidental errors, all operations in this experiment had to follow the principle of parallel operation, i.e., the experiment on each day needed to include animals from each group. Sequential numbering for surgical modeling was obtained by sorting the animals according to their body weight before the experiment. After the surgery, successfully modeled pMCAO rats were randomly assigned into a model group and various treatment groups. The detailed grouping of the experiment was as follows: (1) 15 rats in the 5 µg/Kg IRL1620 group with 9 administrations over 3 days; (2) 15 rats in the 6.6 µg/Kg BX225 group with 9 administrations over 3 days; (3) 15 rats in the 19.8 µg/Kg BX225 group with 3 administrations over 3 days; (4) 15 rats in the model (normal saline) group; and (5) 6 rats in the sham group (the sham group underwent the same procedure without vascular ligation and suture insertion). The administration was performed via tail vein injection (iv) with an administration volume of 2 mL/kg. The first administration was 2 hours after the surgery. Administration frequencies were single and multiple administrations per day according to the experimental design. Administrations were performed on D1, D3, and D6, respectively, as detailed in Table 22. The model group and the sham group were given the same volume of vehicle normal saline.
# rat model of pMACO [2] = test: Grip strength test in rat model of pMACO; format: in vivo, SD rats; details: pMACO rats; 3 administrations (2, 4, 6 h after modeling); IRL1620 5µg/Kg, BX34 7µg/Kg, BX48 5µg/Kg
# rat model of pMACO [3] = test: Garcia JH scoring in rat model of pMACO; format: in vivo, SD rats; set-up: 5 min Spontaneous Activity / Body Symmetry / Forelimb Extension Movement / Cage Climbing / Body Tactile Response on Both Sides / Beard Touch Reaction on Both Sides / Total Score: scale not given here; details: Garcia JH score, Day 21; 3Time regimen: IRL1620 5 µg/Kg, BX225 6.6 µg/Kg
# Description: as §1
# rat model of pMACO [4] = test: Foot fault test in rat model of pMACO; format: in vivo, SD rats; details: BX34 7 µg/Kg, BX48 5 µg/Kg
# Description: Male SD rats weighing 280-300 g were used and acclimated for at least 3 days. Focal cerebral ischemia was induced by middle cerebral artery occlusion with a suture method under isoflurane anesthesia. The animals were placed in a secure supine position, and a midline incision was made to expose the right common carotid artery, external carotid artery, and internal carotid artery. A 4.0 monofilament nylon suture was advanced from the external carotid artery toward the internal carotid artery lumen until resistance was felt ( ~ 20 mm), indicating middle cerebral artery occlusion. The nylon filament was allowed to stay in place to create a permanent model of focal cerebral ischemia. Successfully modeled rats were randomly assigned to four groups: a solvent (normal saline) group (n=10), a 7 µg/Kg BX-34 group (n=10), a 5 µg/Kg BX-48 group (n=10), and a 5 µg/Kg IRL1620 group (n=10). Each group was administered once at 2 hours, 4 hours, and 6 hours, respectively, after modeling, for a total of three administrations. Grip strength was measured before administration and at 24 hours and on D3 and D7 after administration. A rotarod test and a foot fault test were performed before administration and at 24 hours and day 7 after administration. During the rotarod test, time and distance were recorded, and ratios of the measurement at 24 hours and the measurement at D7 to the pretest measurement were used as analysis indicators. The specific method for the foot fault test was as follows. The rats were placed on an elevated grid floor (29×29 cm, grid opening: 3 cm^2) for 2 minutes, and the number of foot faults (when a forelimb fell through the grid) and the total steps were recorded. % Foot fault = (the number of forelimb faults/the total number of forelimb steps) × 100.
# male SD rats = test: in vivo; details: one animal per row, observed 24 hours
# In short: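 Male SD rats (200-230 g) given single tail-vein injections, descending doses from 480 µg/Kg to 30 µg/Kg. Toxic response, mortality and time of death recorded; acute toxicity level preliminarily set from doses without mortality.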
compound,measurement,setting,value
CCCCCCCCCCCC(=O)N[C@@H](CCC(=O)NCCOCCOCC(=O)NCCCC[C@H](NC(=O)[C@H](Cc1c[nH]cn1)NC(=O)[C@H](C)NC(=O)[C@H](Cc1ccccc1)NC(=O)[C@H](Cc1ccc(O)cc1)NC(=O)[C@@H](NC(=O)[C@H](C)NC(=O)[C@H](CCC(=O)O)NC(=O)[C@H](CCC(=O)O)NC(=O)[C@H](CC(=O)O)NC(=O)/C=C/C(=O)O)C(C)C)C(=O)N[C@@H](CC(=O)O)C(=O)N[C@H](C(=O)N[C@H](C(=O)N[C@@H](Cc1c[nH]c2ccccc12)C(=O)O)[C@@H](C)CC)C(C)C)C(=O)O [BX229-Na] (Fumaroyl-DEEAVYFAHK([AEEA-γGlu-Lauroyl])DVIW-OH),EC50,mouse ETB receptor,9.05 nM
CC[C@H](C)[C@H](NC(=O)[C@H](CC(=O)O)NC(=O)[C@H](CCCCNC(=O)COCCOCCNC(=O)CCN1C(=O)CC(SC[C@H](N)C(=O)N2CCC[C@H]2C(=O)N[C@@H](C)C(=O)N[C@@H](CCCCN)C(=O)O)C1=O)NC(=O)[C@H](Cc1c[nH]cn1)NC(=O)[C@H](C)NC(=O)[C@H](Cc1ccccc1)NC(=O)[C@H](Cc1ccc(O)cc1)NC(=O)[C@@H](NC(=O)[C@H](C)NC(=O)[C@H](CCC(=O)O)NC(=O)[C@H](CCC(=O)O)NC(=O)[C@H](CC(=O)O)NC(=O)/C=C/C(=O)O)C(C)C)C(=O)N[C@H](C(=O)N[C@@H](Cc1c[nH]c2ccccc12)C(=O)O)[C@@H](C)CC (stereo partly shown) [BX-95] (Fumaroyl-DEEAVYFAHK([AEEA-X1])DIIW-OH),EC50,mouse ETB receptor,22.1 nM
"CC[C@H](C)[C@H](NC(=O)[C@H](CC(=O)O)NC(=O)[C@H](CC(C)C)NC(=O)[C@H](Cc1c[nH]cn1)NC(=O)[C@H](C)NC(=O)[C@H](Cc1ccccc1)NC(=O)[C@H](Cc1ccc(O)cc1)NC(=O)[C@@H](NC(=O)[C@H](C)NC(=O)[C@H](CCC(=O)O)NC(=O)[C@H](CCC(=O)O)NC(=O)[C@H](CC(=O)O)NC(=O)CCC(=O)O)C(C)C)C(=O)N[C@H](C(=O)N[C@@H](Cc1c[nH]c2ccccc12)C(=O)O)[C@@H](C)CC [IRL1620, reference compound] (Suc-DEEAVYFAHLDIIW-OH)",mRS-7D,rat model of pMACO [1]; day 7,2.54±2.03
same,mRS-14D,rat model of pMACO [1]; day 14,2.77±2.66
same,mRS-21D,rat model of pMACO [1]; day 21,2.72±2.71
same,mRS-30D,rat model of pMACO [1]; day 30,2.52±2.87
same,Grip Strength Test 3D/pre,rat model of pMACO [2],57%±11%
same,Grip Strength Test 7D/pre,rat model of pMACO [2],61%+13%
same,Grip Strength Test 24h/pre,rat model of pMACO [2],47% ±27%
same,5 min Spontaneous Activity,rat model of pMACO [3],1.77±1.48
same,Beard Touch Reaction on Both Sides,rat model of pMACO [3],1.95±0.82
same,Body Symmetry,rat model of pMACO [3],0.90±0.80
same,Body Tactile Response on Both Sides,rat model of pMACO [3],1.79±0.70
same,Cage Climbing,rat model of pMACO [3],2.03± 0.86
same,Forelimb Extension Movement,rat model of pMACO [3],1.26±1.05
same,Total Score,rat model of pMACO [3],9.70± 5.58
same,Foot fault Analysis Mean of 7D,"rat model of pMACO [4]; percentage of foot faults at 7D, IRL1620 5 µg/Kg, administered 3 times (2, 4, 6 hours after modeling)",4.3%+3.14%
same,Foot fault Analysis Mean of 24h,"rat model of pMACO [4]; percentage of foot faults at 24h, IRL1620 5 µg/Kg, administered 3 times (2, 4, 6 hours after modeling)",14.2%±17.61%
same,Foot fault Analysis Mean of Pretest,"rat model of pMACO [4]; percentage of foot faults, pretest (baseline before administration), groups IRL1620 5 µg/Kg, 3 times",1%±2%
same,Observations of Animal Status,male SD rats; intravenous (tail vein) 30 µg/Kg,"Developed rapid breathing at 13 minutes, showed no willingness to move at 30 minutes; recovered at 1.5 hours; also recorded: Developed rapid breathing at 15 minutes, showed no willingness to move at 25 minutes; recovered at 1.5 hours; also recorded: Lay still at 25 minutes, showed no willingness to move at 1.5 hours; found dead the next morning (estimated to have died during the night)"
same,Observations of Animal Status,male SD rats; intravenous (tail vein) 60 µg/Kg,Developed rapid breathing at 3 minutes; died at 8 minutes
same,Observations of Animal Status,male SD rats; intravenous (tail vein) 120 µg/Kg,Developed rapid breathing and the body turned purple at 5 minutes; died at 9 minutes
